Reference: patent US8258119B2, “Anti-cancer drugs and uses relating thereto for metastatic malignant melanoma and other cancers” (Kasina Laila Innova Pharmaceuticals, priority 2008, dated 2012)
In brackets after ≈: the same amount, converted by molar mass.

How the values were obtained:
B16F0 cells = test: B16F0 mouse melanoma cell invasion assay (Matrigel); assay type: cell-based; conditions: 100 μg/ml, 24 h, compared to vehicle or DTIC
Protocol: The inhibitory effects of DTIC and […] on In vitro invasive ability of B16F0 were tested in cell invasion assay performed with by using Matrigel (BME Cultrex®, R&D Systems, USA) coated cell culture inserts (Becton Dickinson, USA) with 8 μm-pore membrane. Equal number (fifty thousands) of B16F0 cells were applied in each insert well and allowed to attach for 2 h at 37° C. and in presence of 5% CO2. Thereafter, the cellular invasion through the matrigel layer was performed in presence or absence of test compounds. Either 100 μg/ml of DTIC or Compound 6 was applied in the lower chamber of the invasion assembly. 0.1% DMSO was applied in the vehicle control culture chambers. After 24 h treatment, the matrigel layer containing cells was removed with cotton plug and the invaded cells on the other side of the membrane were fixed with methanol for 5 min and then stained with Giemsa. The stained membrane was mounted on a glass slide and number invaded cells were counted in 20 random fields (20× objective) under a light microscope (Nikon Eclipse TS 100).

[1] = tested on: Human umbilical vein endothelial cells (HUVEC); test: Endothelial cell migration assay; assay type: cell-based; conditions: 18 h
Protocol: The methodology of endothelial cell migration assay was essentially the same as described earlier with some modifications (43). FALCON™ Cell Culture inserts (Becton Dickinson, USA) with 8 μm-pores in their PET membrane was coated with 0.1 mg/ml of collagen. Human umbilical vein endothelial cells (HUVEC) were added to the cell culture inserts (Becton Dickinson) at a density of 5×10^4 cells/insert. Cells were allowed to migrate through the insert for 18 h in presence of different concentrations of either DTIC or Compound 6. The control culture containing migration assembly received only 0.1% DMSO. […] The membranes of the inserts were then mounted on glass slides. Cells migrated through the membrane pores were counted in 20 random fields under Nikon Eclipse TS 100 microscope at 20× objective.

B16 F0 melanoma = B16 F0 melanoma xenograft model of C57B6J mice; assay type: in vivo; conditions: for dose response of tumor growth inhibition: two dose levels (50 and 100 mg/kg), intra-peritoneal
Protocol: […] mice of 6 weeks age (body weight 18-22 g) were purchased from National Institute of Nutrition (NIN), Hyderabad (India). Animals study protocols were approved by Institutional Ethics Committee (IAEC). All the studies were performed in compliance with the Committee for the Purpose of Control and Supervision of Experiments on Animals (CPCSEA) guidelines and OECD guidelines. Animals were allowed free access to standard feed and provided charcoal filtered and UV exposed water ad libitum. The animals were maintained at a controlled temperature (24-26° C.), humidity (45-70%), and 12 h/12 h of light/dark cycle. To induce the melanoma tumor formation, sub-confluent B16F0 cells were harvested by brief trypsinization and 1×10^6 cells were injected subcutaneously in 0.2 ml phosphate-buffered saline. Drug treatment was started after development of palpable tumors (3-5 days after implantation of the cells). […] After fourteen days of treatment, the animals were sacrificed by CO2 inhalation and tumors were excised and weighed.

[2] = tested on: A375 human melanoma cells; test: MTT cell proliferation assay in A375 cells; assay type: cell-based; conditions: A-375, 72 h, 3 days, read-out: 50% of inhibitory concentration, IC50 in A375 cells
Protocol: MTT [3-(4,5-dimethylthiazol-2-yl)-2,5-diphenyltetrazolium bromide] incorporation based cell proliferation assay was performed using standard procedure with some modifications (38). The cytotoxic efficacy of the test compounds were evaluated in human malignant melanoma A2058 cells by MTT cell proliferation assay kit (Roche Applied Sciences, Germany). The assay was carried out according to the instruction provided by the vendor. Briefly, equal numbers of cells was plated in 96-well flat-bottomed plates in 100 μl of medium and were exposed to either DTIC or its derivative compounds at various concentrations up to 150 μg/ml for a period of three days. Vehicle control culture wells received only a maximum of 0.5% DMSO. […] After complete solubilization of the formazan crystals the absorbance was read at 540 nm in a microplate reader (BioRad, USA). […]
The comparative anti-tumor growth potential of DTIC and Compound 6 was further tested in B16F0 mouse melanoma cells and A375 human melanoma cells by using MTT based cell proliferation assay following the methodology described earlier (Example 19). […] After adding the MTT reagent, the cells were solubilized and the intracellular formazan formation was calorimetrically read at 540 nm in a microplate reader (BioRad, USA). […]

[3] = tested on: Vascular Endothelial Growth Factor (VEGF); test: VEGF expression in B16F0 cells by western blot; assay type: cell-based, mouse; conditions: 50 μg/ml, 24 h
Protocol: B16F0 cells were cultivated in Dulbecco's modified Eagle's red medium (DMEM) (Sigma Life Science, USA) containing 10% fetal bovine serum (FBS) and 4.5 g/l D-glucose. Equal number cells (5×10^4) were seeded in culture dishes (35×10 mm, 11.7 cm^2). The cells were treated with either 50 μg/ml of DTIC or […] for 24 h. The cells incubated with only 0.1% DMSO was considered as vehicle control. After 24 h, the cell lysates were prepared and analyzed for Vascular Endothelial Growth Factor (VEGF) expression by western blot assay as described earlier with appropriate modifications (43).
For Western blot analyses, equal amount of B16F0 cell lysate proteins were separated in 12.5% SDS-PAGE under reducing conditions, and transferred onto nitrocellulose membranes (Bio-Rad, USA). The membranes were blocked with SuperBlock (Thermo scientific, USA) and subsequently reacted with VEGF antibody (Abeam, UK) at 4° C. overnight. Bound antibodies were probed with horseradish peroxidase conjugated secondary antibody and the specific immunoreactions were developed with enhanced chemiluminescence (Thermo scientific, USA). […] The images of immunoreactive bands were captured in Kodak Image Station 4000MM (Carestream Health Inc., New Haven, Conn.) and analyzed densitometrically by Kodak molecular Imaging software, Version 4.5.

[4] = at therapeutic concentrations; cited from earlier work
[5] = tested on: metastatic malignant melanoma; conditions: clinical setting; cited from earlier work

melting point [°C] | IC50 [2] [mg/L] | SMILES | tumor cell invasion (B16F0 cells) | endothelial cell migration [1] | anti-tumor activity (B16 F0 melanoma; daily intra-peritoneal, fourteen days, tumor weight) | dose response of tumor growth inhibition (B16 F0 melanoma) | VEGF protein expression [3] | binding to human plasma protein [4] | Complete Response (CR) rate [5]
108 to 110 | 46.5 (≈ 233 µM) | CN(C)/N=N/c1ccsc1C(=O)O [Compound 6, 3-[(dimethylamino)diazenyl]thiophene-2-carboxylic acid] | significantly reduced malignant tumor cell invasion | significant inhibition of migration | better anti-tumor activity than DTIC | dose response inhibition at the two dose levels tested | down regulation of VEGF protein |  | 
 |  | CN(C)/N=N/c1[nH]cnc1C(N)=O [DTIC, 5-(3,3-dimethyl-1-trizeno)-imidazole-4-carboxamide, reference compound] |  |  |  | failed to show statistically significant dose response |  | not appreciably bound | below 10%
